Assays:
ABUTH [1] = test: Pre-emergence herbicidal action against ABUTH; type: in vivo, Abutilon theophrasti; settings: for Pre-emergence action against ABUTH (herbicidal activity): 80 g/ha, scored visually after 3 weeks vs untreated controls (100% = plants have died, 0% = like control plants); for Pre-emergence action against ABUTH (herbicidal activity in percent): dosage 20 g/ha, scored visually after 3 weeks vs untreated controls, 100% = plants have died, 0% = like control plants
Summary of the method: (§1)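 Sandy loam pots, seeds covered with soil, then surface-treated with WP or EC formulations at 600–800 l/ha water plus 0.2% wetting agent. Greenhouse, 3 weeks. Percent damage vs untreated controls.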

ECHCG [2] = test: Post-emergence herbicidal action against ECHCG; type: in vivo, Echinochloa crus-galli
Summary of the method: (§2)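 Visual % rating (0% = as untreated, 100% = dead) ~3 wk after spraying one-leaf-stage plants grown in sandy loam; WP/EC in water at 600–800 l/ha, 0.2% wetting agent.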

ECHCG [3] = test: Pre-emergence herbicidal action against ECHCG; type: in vivo, Echinochloa crus-galli; settings: 80 g/ha
Summary of the method: as §1

PHBPU [4] = test: Post-emergence herbicidal action against PHBPU; type: in vivo, Pharbitis purpurea
Summary of the method: as §2

SETVI [5] = test: Pre-emergence herbicidal action against SETVI; type: in vivo, Setaria viridis; settings: dosage 80 g/ha
Summary of the method: as §1

SETVI [6] = test: Post-emergence herbicidal action against SETVI; type: in vivo, Setaria viridis; settings: dosage 20 g/ha
Summary of the method: as §2

DIGSA [7] = test: Pre-emergence herbicidal action against DIGSA; type: in vivo, Digitaria sanguinalis
Summary of the method: as §1

POLCO = test: Pre-emergence herbicidal action against POLCO; type: in vivo, Polygonum convolvulus; settings: dosage 80 g/ha
Summary of the method: as §1

PHBPU [8] = test: Pre-emergence herbicidal action against PHBPU; type: in vivo, Pharbitis purpurea
Summary of the method: as §1

AMARE [9] = test: Pre-emergence herbicidal action against AMARE; type: in vivo, Amaranthus retroflexus
Summary of the method: as §1

LOLRI = test: Pre-emergence herbicidal action against LOLRI; type: in vivo, Lolium rigidum; settings: 80 g/ha
Summary of the method: as §1

ALOMY [10] = test: Pre-emergence herbicidal action against ALOMY; type: in vivo, Alopecurus myosuroides; settings: 80 g/ha, pre-emergence, scored visually after 3 weeks vs untreated controls (100% = plants have died, 0% = like control plants)
Summary of the method: as §1

VERPE = test: Pre-emergence herbicidal action against VERPE; type: in vivo, Veronica persica; settings: dosage 80 g/ha
Summary of the method: as §1

AMARE [11] = test: Post-emergence herbicidal action against AMARE; type: in vivo, Amaranthus retroflexus; settings: 20 g/ha, visual assessment about 3 weeks after treatment, 100% = plants have died, 0% = like control plants
Summary of the method: as §2

MATIN [12] = test: Pre-emergence herbicidal action against MATIN; type: in vivo, Matricaria inodora
Summary of the method: as §1

VIOTR [13] = test: Pre-emergence herbicidal action against VIOTR; type: in vivo, Viola tricolor
Summary of the method: as §1

ALOMY [14] = test: Post-emergence herbicidal action against ALOMY; type: in vivo, Alopecurus myosuroides; settings: dosage 20 g/ha, visual assessment about 3 weeks after treatment vs untreated controls
Summary of the method: as §2

MATIN [15] = test: Post-emergence herbicidal action against MATIN; type: in vivo, Matricaria inodora
Summary of the method: as §2

DIGSA [16] = test: Post-emergence herbicidal action against DIGSA; type: in vivo, Digitaria sanguinalis; settings: 20 g/ha
Summary of the method: as §2

AVEFA = test: Pre-emergence herbicidal action against AVEFA; type: in vivo, Avena fatua; settings: 80 g/ha, pre-emergence
Summary of the method: as §1

VIOTR [17] = test: Post-emergence herbicidal action against VIOTR; type: in vivo, Viola tricolor; settings: 20 g/ha
Summary of the method: as §2

ABUTH [18] = test: Post-emergence herbicidal action against ABUTH; type: in vivo, Abutilon theophrasti; settings: dosage 20 g/ha, visual assessment about 3 weeks after treatment vs untreated controls
Summary of the method: as §2

[19] = 20 g/ha, scored visually after 3 weeks vs untreated controls, 100% = plants have died, 0% = like control plants
[20] = 80 g/ha, scored visually after 3 weeks vs untreated controls (100% = plants have died, 0% = like control plants)

## COCCNC(=O)c1c(C(F)(F)F)ccc(C(=O)Nc2nnnn2C)c1Cl [Example 1-138]
ABUTH [1]
  Pre-emergence action against ABUTH (herbicidal activity): 100%
  Pre-emergence action against ABUTH (herbicidal activity in percent): 100%
ECHCG [2]; dosage 5 g/ha
  Post-emergence action against ECHCG in %: 80%
ECHCG [2]; dosage 20 g/ha
  Post-emergence action against ECHCG in %: 90%
ECHCG [3]
  Pre-emergence action against ECHCG in %: 100%
PHBPU [4]; dosage 5 g/ha
  Post-emergence action against PHBPU in %: 80%
PHBPU [4]; dosage 20 g/ha
  Post-emergence action against PHBPU in %: 90%
SETVI [5]
  Pre-emergence action against SETVI in %: 100%
SETVI [6]
  Post-emergence action against SETVI in %: 80%
DIGSA [7]; dosage 20 g/ha
  Pre-emergence action against DIGSA in %: 100%
DIGSA [7]; dosage 80 g/ha
  Pre-emergence action against DIGSA in %: 100%
POLCO
  Pre-emergence action against POLCO in %: 90%
PHBPU [8]; dosage 20 g/ha
  Pre-emergence action against PHBPU in %: 80%
PHBPU [8]; dosage 80 g/ha
  Pre-emergence action against PHBPU in %: 90%
AMARE [9]; [19]
  Pre-emergence action against AMARE in %: 100%
AMARE [9]; [20]
  Pre-emergence action against AMARE in %: 100%
LOLRI
  Pre-emergence action against LOLRI in %: 90%
ALOMY [10]
  Pre-emergence action against ALOMY (herbicidal activity): 90%
VERPE
  Pre-emergence action against VERPE in %: 90%
AMARE [11]
  Post-emergence action at 20 g/ha against AMARE in %: 90%
MATIN [12]; dosage 20 g/ha
  Pre-emergence action against MATIN in %: 90%
MATIN [12]; dosage 80 g/ha
  Pre-emergence action against MATIN in %: 100%
VIOTR [13]; dosage 20 g/ha
  Pre-emergence action against VIOTR in %: 100%
VIOTR [13]; dosage 80 g/ha
  Pre-emergence action against VIOTR in %: 100%
ALOMY [14]
  Post-emergence action against ALOMY in %: 90%

## CCn1nnnc1NC(=O)c1ccc(C(F)(F)F)c(C(=O)NCC2CC2)c1Cl [Example 2-132]
ABUTH [1]
  Pre-emergence action against ABUTH (herbicidal activity): 100%
  Pre-emergence action against ABUTH (herbicidal activity in percent): 100%
ECHCG [2]; dosage 20 g/ha
  Post-emergence action against ECHCG in %: 90%
ECHCG [3]
  Pre-emergence action against ECHCG in %: 100%
SETVI [5]
  Pre-emergence action against SETVI in %: 100%
SETVI [6]
  Post-emergence action against SETVI in %: 80%
DIGSA [7]; dosage 20 g/ha
  Pre-emergence action against DIGSA in %: 80%
DIGSA [7]; dosage 80 g/ha
  Pre-emergence action against DIGSA in %: 100%
POLCO
  Pre-emergence action against POLCO in %: 80%
PHBPU [8]; dosage 80 g/ha
  Pre-emergence action against PHBPU in %: 90%
AMARE [9]; [19]
  Pre-emergence action against AMARE in %: 100%
AMARE [9]; [20]
  Pre-emergence action against AMARE in %: 100%
MATIN [15]; dosage 5 g/ha
  Post-emergence action against MATIN in %: 80%
MATIN [15]; dosage 20 g/ha
  Post-emergence action against MATIN in %: 80%
LOLRI
  Pre-emergence action against LOLRI in %: 90%
ALOMY [10]
  Pre-emergence action against ALOMY (herbicidal activity): 90%
DIGSA [16]
  Post-emergence action against DIGSA: 80%
AVEFA
  Pre-emergence action against AVEFA in %: 90%
AMARE [11]
  Post-emergence action at 20 g/ha against AMARE in %: 90%
MATIN [12]; dosage 20 g/ha
  Pre-emergence action against MATIN in %: 100%
MATIN [12]; dosage 80 g/ha
  Pre-emergence action against MATIN in %: 100%
VIOTR [17]
  Post-emergence action against VIOTR in %: 90%
ABUTH [18]
  Post-emergence action against ABUTH in %: 80%
VIOTR [13]; dosage 20 g/ha
  Pre-emergence action against VIOTR in %: 100%
VIOTR [13]; dosage 80 g/ha
  Pre-emergence action against VIOTR in %: 100%

Source: patent publication US12655116B2, “Substituted isophthalic acid diamides” (Bayer Aktiengesellschaft, priority 2020, dated 2026)
